Measurements: patent US7795279B2, “Method of inhibiting FLT3 kinase” (Janssen Pharmaceutica NV, priority 2005, dated 2010)
Where a name gives a salt, the structure may show the parent alone.

Molecular target: T1, isolated kinase domain of the human FLT3 receptor (a.a. 571-993) (Homo sapiens, UniProt P36888)
T1 construct: human FLT3 receptor (a.a. 571-993)
T1 sequence (P36888 571-993): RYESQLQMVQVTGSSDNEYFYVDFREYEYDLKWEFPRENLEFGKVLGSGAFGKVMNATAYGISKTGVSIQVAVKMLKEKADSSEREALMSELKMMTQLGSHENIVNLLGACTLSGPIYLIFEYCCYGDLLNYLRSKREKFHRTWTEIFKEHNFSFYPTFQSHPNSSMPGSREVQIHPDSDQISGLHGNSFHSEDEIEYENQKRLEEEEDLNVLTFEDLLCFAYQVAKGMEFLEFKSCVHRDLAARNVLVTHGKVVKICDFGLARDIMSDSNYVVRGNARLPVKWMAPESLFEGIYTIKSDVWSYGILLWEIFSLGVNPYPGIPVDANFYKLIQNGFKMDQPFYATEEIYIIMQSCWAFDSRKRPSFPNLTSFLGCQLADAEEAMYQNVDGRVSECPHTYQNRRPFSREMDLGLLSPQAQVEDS
Assay: FLT3 fluorescence polarization kinase assay
Assay type: biochemical
Conditions: 10 nM FLT3 571-993, 150 uM ATP; uncertainty ±10%; read-out: Flt-3 Kinase IC50
Excerpt: The FLT3 FP assay utilizes the fluorescein-labeled phosphopeptide and the anti-phosphotyrosine antibody included in the Panvera Phospho-Tyrosine Kinase Kit (Green) supplied by Invitrogen. When FLT3 phosphorylates polyGlu4Tyr, the fluorescein-labeled phosphopeptide is displaced from the anti-phosphotyrosine antibody by the phosphorylated poly Glu4Tyr, thus decreasing the FP value. […] The kinase reaction is stopped with the addition of EDTA. The fluorescein-labeled phosphopeptide and the anti-phosphotyrosine antibody are added and incubated for 30 minutes at room temperature.
Data points are an average of triplicate samples. Inhibition and IC50 data analysis was done with GraphPad Prism using a non-linear regression fit with a multiparamater, sigmoidal dose-response (variable slope) equation.

Structure (SMILES) | IC50 [nM]
Cc1cscc1-c1cc(N2CCN(C)CC2)ccc1NC(=O)c1ccc(C#N)o1 [Example 5, 5-Cyano-furan-2-carboxylic acid [4-(4-methyl-piperazin-1-yl)-2-(4-methyl-thiophen-3-yl)-phenyl]-amide] | 10
N#Cc1c[nH]c(C(=O)Nc2ccc(C3CCNCC3)cc2C2=CCCCC2)c1 [Example 13, 4-Cyano-1H-pyrrole-2-carboxylic acid (2-cyclohex-1-enyl-4-piperidin-4-yl-phenyl)-amide trifluoroacetic acid salt] | 29
CN(C)CC(=O)N1CCC(c2ccc(NC(=O)c3nc(C#N)c[nH]3)c(C3=CCC(C)(C)CC3)n2)CC1 [Example 55, 4-Cyano-1H-imidazole-2-carboxylic acid [1′-(2-dimethylamino-acetyl)-6-(4,4-dimethyl-cyclohex-1-enyl)-1′,2′,3′,4′,5′,6′-hexahydro-[2,4′]bipyridinyl-5-yl]-amide trifluoroacetic acid salt] | 34

Tested on: MV4-11 cells
Assay: Inhibition of MV4-11 cell proliferation (CellTiterGlo)
Assay type: cell-based
Conditions: Homo sapiens, 72 hours growth, uncertainty ±20%
Experimental: To assess the cellular potency of compounds of the present invention, FLT3 specific growth inhibition was measured in the leukemic cell line MV4-11 (ATCC Number: CRL-9591). MV4-11 cells are derived from a patient with childhood acute myelomonocytic leukemia with an 11q23 translocation resulting in a MLL gene rearrangement and containing an FLT3-ITD mutation (AML subtype M4)(1,2). MV4-11 cells cannot grow and survive without active FLT3ITD.
To measure proliferation inhibition by compounds of the present invention, the luciferase based CellTiterGlo reagent (Promega), which quantifies total cell number based on total cellular ATP concentration, was used. Cells are plated at 10,000 cells per well in 100 ul of in RPMI media containing penn/strep, 10% FBS and 1 ng/ml GM-CSF or 1 ng/ml IL-3 for MV4-11 and Baf3 cells respectively.
Compound dilutions or 0.1% DMSO (vehicle control) are added to cells and the cells are allowed to grow for 72 hours at standard cell growth conditions (37° C., 5% CO2). For activity measurements in MV4-11 cells grown in 50% plasma, cells were plated at 10,000 cells per well in a 1:1 mixture of growth media and human plasma (final volume of 100 μL). To measure total cell growth an equal volume of CellTiterGlo reagent was added to each well, according to the manufacturer's instructions, and luminescence was quantified. Total cell growth was quantified as the difference in luminescent counts (relative light units, RLU) of cell number at Day 0 compared to total cell number at Day 3 (72 hours of growth and/or compound treatment). One hundred percent inhibition of growth is defined as an RLU equivalent to the Day 0 reading. Zero percent inhibition was defined as the RLU signal for the DMSO vehicle control at Day 3 of growth.
Data points are an average of triplicate samples. […] Inhibition and IC50 data analysis was done with GraphPad Prism using a non-linear regression fit with a multiparamater, sigmoidal dose-response (variable slope) equation.

Structure (SMILES) | IC50 [nM]
Cc1cscc1-c1cc(N2CCN(C)CC2)ccc1NC(=O)c1ccc(C#N)o1 [Example 5, 5-Cyano-furan-2-carboxylic acid [4-(4-methyl-piperazin-1-yl)-2-(4-methyl-thiophen-3-yl)-phenyl]-amide] | 666
Cc1ccccc1-c1cc(N2CCN(C)CC2)ccc1NC(=O)c1ccc(C#N)o1 [Example 9, 5-Cyano-furan-2-carboxylic acid [2′-methyl-5-(4-methyl-piperazin-1-yl)-biphenyl-2-yl]-amide] | 1000
N#Cc1c[nH]c(C(=O)Nc2ccc(C3CCN(CCN4CCOCC4)CC3)cc2C2=CCCCC2)n1 [Example 34, 4-Cyano-1H-imidazole-2-carboxylic acid {2-cyclohex-1-enyl-4-[1-(2-morpholin-4-yl-ethyl)-piperidin-4-yl]-phenyl}-amide di-trifluoroacetic acid salt] | 8
N#Cc1c[nH]c(C(=O)Nc2ccc(C3CCNCC3)cc2C2=CCS(=O)(=O)CC2)n1 [Example 36, 4-Cyano-1H-imidazole-2-carboxylic acid [2-(1,1-dioxo-1,2,3,6-tetrahydro-1λ^6-thiopyran-4-yl)-4-piperidin-4-yl-phenyl]-amide trifluoroacetic acid salt] | 192
CS(=O)(=O)CCN1CCC(c2ccc(NC(=O)c3nc(C#N)c[nH]3)c(C3=CCCCC3)c2)CC1 [Example 40, 4-Cyano-1H-imidazole-2-carboxylic acid {2-cyclohex-1-enyl-4-[1-(2-methanesulfonyl-ethyl)-piperidin-4-yl]-phenyl}-amide] | 116

Second part, the compound after the results:

IC50 [nM] | Structure (SMILES)
131 | CN1CCN(c2ccc(NC(=O)c3ccc(C#N)o3)c(C3=CCCCC3)c2)CC1 [Example 11, 5-Cyano-furan-2-carboxylic acid [2-cyclohex-1-enyl-4-(4-methyl-piperazin-1-yl)-phenyl]-amide]
> 10000 | CN1CCN(c2ccc(NC(=O)c3ccc(C#N)o3)c(C3=CCOCC3)c2)CC1 [Example 12]
115 | Cn1ccnc1CN1CCC(c2ccc(NC(=O)c3nc(C#N)c[nH]3)c(C3=CCCC3)c2)CC1 [Example 23, 4-Cyano-1H-imidazole-2-carboxylic acid {2-cyclopent-1-enyl-4-[1-(1-methyl-1 H-imidazol-2-ylmethyl)-piperidin-4-yl]-phenyl}-amide trifluoroacetic acid salt]
192 | N#Cc1c[nH]c(C(=O)Nc2ccc(C3CCS(=O)(=O)CC3)cc2C2=CCCCC2)n1 [Example 35, 4-Cyano-1H-imidazole-2-carboxylic acid [2-cyclohex-1-enyl-4-(1,1-dioxo-hexahydro-1λ^6-thiopyran-4-yl)-phenyl]-amide]
4.72 | C[C@@H]1CC(c2ccc(NC(=O)c3ncc(C#N)[nH]3)c(C3=CCCCC3)c2)C[C@H](C)N1 (stereo partly drawn) [Example 51a, 5-Cyano-1H-imidazole-2-carboxylic acid [2-cyclohex-1-enyl-4-(cis-2,6-dimethyl-piperidin-4-yl)-phenyl]-amide bis trifluoroacetic acid salt]
